Columns and labels:
IBC02 = assay: WST cell proliferation assay, IBC02 cells; type: cell-based
IBC03 = assay: WST cell proliferation assay, IBC03 cells; type: cell-based
KPL4 = assay: WST cell proliferation assay, KPL4 cells; type: cell-based
SUM149 = assay: WST cell proliferation assay, SUM149 cells; type: cell-based
SUM190 = assay: WST cell proliferation assay, SUM190 cells; type: cell-based
[1] = cited from earlier work; for peak serum concentrations achieved in different clinical trials: human, in vivo; for Cmax: peak serum concentration, clinical trials, read-out: Phase I-II Cmax
HDAC1 = HDAC1 (Homo sapiens, UniProt Q13547); settings: previously shown [37]; cited from earlier work
[2] = at clinically recommended doses; cited from earlier work
MFM223 = assay: WST cell proliferation assay, MFM223 cells; settings: 100 nM, 7 days
Description: (§1) The inhibition of cell proliferation by E, N, T and ENT is measured by WST assay.

HCC1913 = assay: WST cell proliferation assay, HCC1913 cells; settings: 100 nM, 7 days
Description: as §1

[3] = single drug 1000 nM, Belinostat panel
[4] = single drug 500 nM, Belinostat panel
[5] = single drug 100 nM, Entinostat panel (upper part of Table 6)
[6] = single drug 150 nM, Entinostat panel
[7] = single drug 100 nM, Belinostat panel
[8] = single drug 200 nM, Belinostat panel
[9] = single drug 200 nM, Entinostat panel

Chain of HDAC1 (Q13547 whole entry): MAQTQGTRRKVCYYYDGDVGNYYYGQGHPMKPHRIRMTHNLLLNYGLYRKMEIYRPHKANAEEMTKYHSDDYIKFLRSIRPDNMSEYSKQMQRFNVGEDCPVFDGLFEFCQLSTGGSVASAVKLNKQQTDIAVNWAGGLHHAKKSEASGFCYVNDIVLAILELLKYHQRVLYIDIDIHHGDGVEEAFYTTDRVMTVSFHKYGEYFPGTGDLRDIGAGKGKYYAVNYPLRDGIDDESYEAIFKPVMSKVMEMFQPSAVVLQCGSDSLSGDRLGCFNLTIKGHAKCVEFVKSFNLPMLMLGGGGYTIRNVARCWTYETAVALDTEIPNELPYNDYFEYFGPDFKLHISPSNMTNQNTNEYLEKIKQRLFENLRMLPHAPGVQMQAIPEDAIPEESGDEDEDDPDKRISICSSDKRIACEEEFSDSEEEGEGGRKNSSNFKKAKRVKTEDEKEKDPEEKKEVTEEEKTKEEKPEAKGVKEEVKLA

| Compound | peak serum concentrations achieved in different clinical trials [1] | Cmax [1] | Survival of inflammatory breast cancer cells (percent viability vs DMSO) (IBC02; [5]) | Survival of inflammatory breast cancer cells (percent viability vs DMSO) (IBC03; [5]) | Survival of inflammatory breast cancer cells (percent viability vs DMSO) (KPL4; [5]) | Survival of inflammatory breast cancer cells (percent viability vs DMSO) (SUM149; [5]) | Survival of inflammatory breast cancer cells (percent viability vs DMSO) (SUM190; [5]) | Survival of inflammatory breast cancer cells (percent viability vs DMSO) (IBC02; [7]) | Survival of inflammatory breast cancer cells (percent viability vs DMSO) (IBC03; [7]) | Survival of inflammatory breast cancer cells (percent viability vs DMSO) (KPL4; [7]) | Survival of inflammatory breast cancer cells (percent viability vs DMSO) (SUM149; [7]) | Survival of inflammatory breast cancer cells (percent viability vs DMSO) (SUM190; [7]) | side effects [2] | other results |
| --- | --- | --- | --- | --- | --- | --- | --- | --- | --- | --- | --- | --- | --- | --- |
| O=C(/C=C/c1cccc(S(=O)(=O)Nc2ccccc2)c1)NO [Belinostat] | 200 µM | 200 µM | – | – | – | – | – | – | – | – | – | – | – | Survival of inflammatory breast cancer cells (percent viability vs DMSO) (IBC02; single drug 500 nM, Belinostat panel (lower part of Table 6)): 14; Survival of inflammatory breast cancer cells (percent viability vs DMSO) (IBC02; [3]): 0; Survival of inflammatory breast cancer cells (percent viability vs DMSO) (IBC03; [4]): 91; Survival of inflammatory breast cancer cells (percent viability vs DMSO) (IBC03; [3]): 45; Survival of inflammatory breast cancer cells (percent viability vs DMSO) (KPL4; [4]): 91; Survival of inflammatory breast cancer cells (percent viability vs DMSO) (KPL4; [3]): 23; Survival of inflammatory breast cancer cells (percent viability vs DMSO) (SUM149; [4]): 71; Survival of inflammatory breast cancer cells (percent viability vs DMSO) (SUM149; [3]): 21; Survival of inflammatory breast cancer cells (percent viability vs DMSO) (SUM190; [4]): 95; Survival of inflammatory breast cancer cells (percent viability vs DMSO) (SUM190; [3]): 107 |
| Nc1ccccc1NC(=O)c1ccc(CNC(=O)OCc2cccnc2)cc1 [Entinostat] | – | – | 21 | 61 | 45 | 99 | 159 | – | – | – | – | – | – | Survival of inflammatory breast cancer cells (percent viability vs DMSO) (IBC02; [6]): 12; Survival of inflammatory breast cancer cells (percent viability vs DMSO) (IBC03; [6]): 35; Survival of inflammatory breast cancer cells (percent viability vs DMSO) (KPL4; [6]): 20; Survival of inflammatory breast cancer cells (percent viability vs DMSO) (SUM149; [6]): 102; Survival of inflammatory breast cancer cells (percent viability vs DMSO) (SUM190; [6]): 223; inhibition of HDAC1 (HDAC1): inhibits |
| O=C(Nc1ccc([N+](=O)[O-])cc1Cl)c1cc(Cl)ccc1O [Niclosamide] | 2 µM | 2 µM | 20 | 46 | 91 | 113 | 135 | 17 | 35 | 104 | 74 | 133 | itching, drowsiness, dizziness, and skin rash | sensitivity of cell line (FIG. 2) (MFM223): exceptional sensitivity; sensitivity of cell line (FIG. 2) (HCC1913): exceptional sensitivity |
| CCc1cc(C(N)=O)ccc1-n1nc(C(C)C)c2c(-n3cnc(-c4cnn(C)c4)c3)ccnc21 [Pimitespib] | 7 µM | 7 µM | 107 | 89 | 89 | 115 | 114 | 114 | 89 | 102 | 111 | 112 | diarrhea, decreased appetite, malaise, renal impairment, and anemia | Survival of inflammatory breast cancer cells (percent viability vs DMSO) (IBC02; [8]): 105; Survival of inflammatory breast cancer cells (percent viability vs DMSO) (IBC02; [9]): 114; Survival of inflammatory breast cancer cells (percent viability vs DMSO) (IBC03; [8]): 81; Survival of inflammatory breast cancer cells (percent viability vs DMSO) (IBC03; [9]): 81; Survival of inflammatory breast cancer cells (percent viability vs DMSO) (KPL4; [8]): 136; Survival of inflammatory breast cancer cells (percent viability vs DMSO) (KPL4; [9]): 118; Survival of inflammatory breast cancer cells (percent viability vs DMSO) (SUM149; [8]): 158; Survival of inflammatory breast cancer cells (percent viability vs DMSO) (SUM149; [9]): 172; Survival of inflammatory breast cancer cells (percent viability vs DMSO) (SUM190; [8]): 100; Survival of inflammatory breast cancer cells (percent viability vs DMSO) (SUM190; [9]): 102 |
| O=C(CCCCCCC(=O)Nc1ccccc1)NO [Vorinostat] | – | 40 µM | – | – | – | – | – | – | – | – | – | – | – | – |

— US20240226074A1, “CELL-OF-ORIGIN TARGETED DRUG REPURPOSING FOR TRIPLE-NEGATIVE AND INFLAMMATORY BREAST CARCINOMA WITH HDAC AND HSP90 INHIBITORS COMBINED WITH NICLOSAMIDE” (priority 2022, published 2024)
